Results published in PubChem BioAssay AID330 (DTP/NCI, 2004).
“And” between values parts separate entries of the source, which are not always exact repeats. Equal values may be shown once. Inconclusive results and toxic doses are left out.

Tested on: P388 leukemia ip, CD2F1 mice, survival T/C
Assay: NCI In Vivo Anticancer Drug Screen. Data for tumor model P388 Leukemia (intraperitoneal) in CD2F1 (CDF1) mice
Details: endpoint: median survival time, higher = longer survival
Outline: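 Mice carrying the transplanted tumor received test compound or vehicle. Survival was recorded in each group, and the value is the treated-group measurement divided by that of the vehicle-treated control group.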

[1] = dose: 25.0 mg/kg/injection, schedule: Q04DX002 (ip), vehicle: saline with Tween-80
[2] = dose: 50.0 mg/kg/injection, schedule: Q04DX002 (ip), vehicle: saline with Tween-80
[3] = dose: 50.0 mg/kg/injection, schedule: Q01DX005 (ip), vehicle: saline with Tween-80
[4] = dose: 100.0 mg/kg/injection, schedule: Q01DX005 (ip), vehicle: saline with Tween-80
[5] = dose: 200.0 mg/kg/injection, schedule: Q01DX005 (ip), vehicle: saline with Tween-80
[6] = dose: 60.0 mg/kg/injection, schedule: Q01DX005 (ip), vehicle: saline with Tween-80
[7] = dose: 120.0 mg/kg/injection, schedule: Q01DX005 (ip), vehicle: saline with Tween-80
[8] = dose: 240.0 mg/kg/injection, schedule: Q01DX005 (ip), vehicle: saline with Tween-80
[9] = dose: 50.0 mg/kg/injection, schedule: Q01DX005 (ip), vehicle: Klucel (hydroxypropylcellulose) (HPC)
[10] = dose: 100.0 mg/kg/injection, schedule: Q01DX005 (ip), vehicle: Klucel (hydroxypropylcellulose) (HPC)
[11] = dose: 50.0 mg/kg/injection, schedule: Q01DX009 (ip), vehicle: saline + Tween-80 + alcohol
[12] = dose: 100.0 mg/kg/injection, schedule: Q01DX009 (ip), vehicle: saline + Tween-80 + alcohol
[13] = dose: 200.0 mg/kg/injection, schedule: Q01DX009 (ip), vehicle: saline + Tween-80 + alcohol
[14] = dose: 25.0 mg/kg/injection, schedule: Q01DX009 (ip), vehicle: Klucel (hydroxypropylcellulose) (HPC)
[15] = dose: 50.0 mg/kg/injection, schedule: Q01DX009 (ip), vehicle: Klucel (hydroxypropylcellulose) (HPC)
[16] = dose: 12.5 mg/kg/injection, schedule: Q01DX009 (ip), vehicle: other
[17] = dose: 25.0 mg/kg/injection, schedule: Q01DX009 (ip), vehicle: other
[18] = dose: 50.0 mg/kg/injection, schedule: Q01DX009 (ip), vehicle: other
[19] = dose: 100.0 mg/kg/injection, schedule: Q04DX003 (ip), vehicle: saline
[20] = dose: 25.0 mg/kg/injection, schedule: Q04DX003 (ip), vehicle: saline with Tween-80
[21] = dose: 50.0 mg/kg/injection, schedule: Q01DX009 (ip), vehicle: saline with Tween-80
[22] = dose: 100.0 mg/kg/injection, schedule: Q01DX009 (ip), vehicle: saline with Tween-80
[23] = dose: 200.0 mg/kg/injection, schedule: Q01DX009 (ip), vehicle: saline with Tween-80

COC(=O)C(N)Cc1ccc(OCc2ccccc2)cc1 (stereo unspecified)
T/C (dose: 12.5 mg/kg/injection, schedule: Q01DX009 (ip), vehicle: saline): 102 % of control | T/C (dose: 25.0 mg/kg/injection, schedule: Q01DX009 (ip), vehicle: saline): 102 % of control | T/C [1]: 97 % of control | T/C (dose: 50.0 mg/kg/injection, schedule: Q01DX009 (ip), vehicle: saline): 100 % of control and 101 % of control | T/C [2]: 108 % of control

c1cnc2c(c1)Oc1nc3ccccc3nc1S2
T/C [3]: 99 % of control | T/C [4]: 98 % of control | T/C [5]: 96 % of control

COC(=O)C1=[N+]([O-])c2ccccc2C1C(O)C(=O)OC (stereo unspecified)
T/C [6]: 98 % of control | T/C [7]: 93 % of control | T/C [8]: 98 % of control

O=c1[nH]cnc2c1cnn2CN1CCOCC1
T/C (dose: 25.0 mg/kg/injection, schedule: Q01DX005 (ip), vehicle: Klucel (hydroxypropylcellulose) (HPC)): 106 % of control | T/C [9]: 117 % of control and 90 % of control | T/C [10]: 120 % of control

O=C(OCCCCBr)c1ccccc1
T/C [11]: 102 % of control | T/C [12]: 97 % of control | T/C [13]: 96 % of control | T/C (dose: 400.0 mg/kg/injection, schedule: Q01DX009 (ip), vehicle: saline + Tween-80 + alcohol): 111 % of control

CN(C)c1ccc(C=C2C(=O)CC(C)(C)CC2=O)cc1
T/C [14]: 106 % of control | T/C [15]: 97 % of control | T/C (dose: 100.0 mg/kg/injection, schedule: Q01DX009 (ip), vehicle: Klucel (hydroxypropylcellulose) (HPC)): 92 % of control | T/C (dose: 200.0 mg/kg/injection, schedule: Q01DX009 (ip), vehicle: Klucel (hydroxypropylcellulose) (HPC)): 93 % of control

COC(=O)C(CSC(c1ccccc1)(c1ccccc1)c1ccccc1)NC(=O)CCNC(=O)OCc1ccccc1 (stereo unspecified)
T/C (dose: 6.25 mg/kg/injection, schedule: Q01DX009 (ip), vehicle: other): 103 % of control | T/C [16]: 97 % of control | T/C [17]: 94 % of control | T/C [18]: 88 % of control

CC(CN(C)C)C(/C=C/c1ccccc1)=N\Nc1ccccc1 (stereo unspecified)
T/C (dose: 15.0 mg/kg/injection, schedule: Q01DX005 (ip), vehicle: saline): 98 % of control | T/C (dose: 30.0 mg/kg/injection, schedule: Q01DX005 (ip), vehicle: saline): 103 % of control | T/C (dose: 60.0 mg/kg/injection, schedule: Q01DX005 (ip), vehicle: saline): 99 % of control and 107 % of control

CCCCCCC(=O)/C=C/c1cccc(OCc2ccccc2)c1
T/C [9]: 90 % of control | T/C [10]: 87 % of control | T/C (dose: 200.0 mg/kg/injection, schedule: Q01DX005 (ip), vehicle: Klucel (hydroxypropylcellulose) (HPC)): 94 % of control

CCCCN(C(=O)c1ccccc1)c1nc2ccccc2n1C
T/C [19]: 95 % of control | T/C (dose: 200.0 mg/kg/injection, schedule: Q04DX003 (ip), vehicle: saline): 98 % of control | T/C (dose: 400.0 mg/kg/injection, schedule: Q04DX003 (ip), vehicle: saline): 99 % of control

CC12CCCCC1=CC(=O)CC2 (stereo unspecified)
T/C [16]: 97 % of control | T/C [17]: 100 % of control | T/C (dose: 25.0 mg/kg/injection, schedule: Q01DX009 (ip), vehicle: saline + Tween-80 + alcohol): 100 % of control | T/C [18]: 107 % of control | T/C [11]: 100 % of control | T/C [12]: 104 % of control and 114 % of control | T/C [13]: 106 % of control

Cc1nc2cc(C)[nH]c(=O)n2n1
T/C [3]: 105 % of control | T/C [4]: 107 % of control | T/C [5]: 104 % of control

Cc1ccc(NC(=O)N(CCCl)N=O)c(C)c1
T/C (dose: 16.5 mg/kg/injection, schedule: Q04DX003 (ip), vehicle: saline with Tween-80): 190 % of control | T/C [20]: 250 % of control | T/C (dose: 37.5 mg/kg/injection, schedule: Q04DX003 (ip), vehicle: saline with Tween-80): 90 % of control

O=Cc1cc(-c2ccccc2)n(-c2ccccc2)c1-c1ccccc1
T/C [6]: 96 % of control | T/C [7]: 98 % of control | T/C [8]: 97 % of control

CCN(CC)CCC(=O)c1ccc(OC)c2ccccc12
T/C (dose: 50.0 mg/kg/injection, schedule: Q01DX005 (ip), vehicle: saline): 103 % of control | T/C (dose: 100.0 mg/kg/injection, schedule: Q01DX005 (ip), vehicle: saline): 104 % of control | T/C (dose: 200.0 mg/kg/injection, schedule: Q01DX005 (ip), vehicle: saline): 103 % of control

CC1OC(=O)C2=CCC(O)C(O)C2C1NC(=O)OCc1ccccc1 (stereo unspecified)
T/C (dose: 100.0 mg/kg/injection, schedule: Q01DX001 (ip), vehicle: saline with Tween-80): 108 % of control | T/C (dose: 200.0 mg/kg/injection, schedule: Q01DX001 (ip), vehicle: saline with Tween-80): 108 % of control | T/C (dose: 400.0 mg/kg/injection, schedule: Q01DX001 (ip), vehicle: saline with Tween-80): 101 % of control

COc1ccc(-n2c(SC)nccc2=O)cc1
T/C (dose: 100.0 mg/kg/injection, schedule: Q04DX003 (ip), vehicle: Klucel (hydroxypropylcellulose) (HPC)): 100 % of control | T/C (dose: 200.0 mg/kg/injection, schedule: Q04DX003 (ip), vehicle: Klucel (hydroxypropylcellulose) (HPC)): 99 % of control

CC1S/C(=N\N=C\c2ccc(Cl)cc2)N=C1c1c(O)c2ccccc2oc1=O (stereo unspecified)
T/C (dose: 60.0 mg/kg/injection, schedule: Q01DX005 (ip), vehicle: Klucel (hydroxypropylcellulose) (HPC)): 93 % of control | T/C (dose: 60.0 mg/kg/injection, schedule: Q02DX002 (ip), vehicle: Klucel (hydroxypropylcellulose) (HPC)): 91 % of control | T/C (dose: 120.0 mg/kg/injection, schedule: Q01DX005 (ip), vehicle: Klucel (hydroxypropylcellulose) (HPC)): 91 % of control | T/C (dose: 120.0 mg/kg/injection, schedule: Q02DX002 (ip), vehicle: Klucel (hydroxypropylcellulose) (HPC)): 94 % of control | T/C (dose: 240.0 mg/kg/injection, schedule: Q01DX005 (ip), vehicle: Klucel (hydroxypropylcellulose) (HPC)): 86 % of control | T/C (dose: 240.0 mg/kg/injection, schedule: Q02DX002 (ip), vehicle: Klucel (hydroxypropylcellulose) (HPC)): 94 % of control

CCCCOc1cc(N)nc2ccccc12
T/C (dose: 12.5 mg/kg/injection, schedule: Q04DX002 (ip), vehicle: saline with Tween-80): 95 % of control | T/C [1]: 100 % of control | T/C [2]: 99 % of control

O=C1c2cccc3cccc(c23)C(=O)N1CC1CCCO1 (stereo unspecified)
T/C [3]: 99 % of control | T/C [4]: 101 % of control | T/C [5]: 94 % of control

CC(=O)O.[Pb]
T/C [20]: 100 % of control | T/C (dose: 50.0 mg/kg/injection, schedule: Q04DX003 (ip), vehicle: saline with Tween-80): 100 % of control | T/C [19]: 91 % of control

CC1(c2ccc3c(c2)OCO3)OC(CCl)CS1 (stereo unspecified)
T/C [21]: 101 % of control | T/C [22]: 101 % of control | T/C [23]: 101 % of control

CCSC(=S)S(=O)(=O)c1ccc(C)cc1
T/C (dose: 12.5 mg/kg/injection, schedule: Q01DX009 (ip), vehicle: Klucel (hydroxypropylcellulose) (HPC)): 120 % of control | T/C [14]: 105 % of control | T/C [15]: 115 % of control and 123 % of control

CNC(=O)OCc1ccc(NCCN(C)C)c2c(=O)c3cc(O)ccc3sc12
T/C (dose: 12.5 mg/kg/injection, schedule: Q01DX005 (ip), vehicle: saline with Tween-80): 112 % of control

O=C1c2cccc(NCCCNCCO)c2C(=O)c2cccc(NCCCNCCO)c21
T/C (dose: 12.5 mg/kg/injection, schedule: Q04DX002 (ip), vehicle: distilled water + Tween-80): 110 % of control | T/C (dose: 25.0 mg/kg/injection, schedule: Q04DX002 (ip), vehicle: distilled water + Tween-80): 104 % of control | T/C (dose: 50.0 mg/kg/injection, schedule: Q04DX002 (ip), vehicle: distilled water + Tween-80): 111 % of control

O=C(O)COc1ccc2ccccc2c1
T/C [22]: 90 % of control | T/C (dose: 100.0 mg/kg/injection, schedule: Q04DX003 (ip), vehicle: saline with Tween-80): 100 % of control | T/C [23]: 100 % of control | T/C (dose: 200.0 mg/kg/injection, schedule: Q04DX003 (ip), vehicle: saline with Tween-80): 110 % of control

CC(C)(C)C(Br)C(=O)NN=C(c1ccccc1)c1ccccc1 (stereo unspecified)
T/C [21]: 106 % of control | T/C [22]: 105 % of control | T/C [23]: 99 % of control
